In patent US10450297B2, “Sulfonyl amide derivatives for the treatment of abnormal cell growth” (Pfizer, Inc., priority 2007, dated 2019):

Molecular target: FAK kinase (catalytic construct FAK(410-689)) (Homo sapiens (Human), UniProt Q05397)
Assay: FAKcd kinase ELISA (inhibition of poly-glu-tyr phosphorylation by FAK(410-689))
Format: biochemical
Settings: 50 μM final ATP

Sequence of FAK kinase (catalytic construct FAK(410-689)) (Q05397 410-689): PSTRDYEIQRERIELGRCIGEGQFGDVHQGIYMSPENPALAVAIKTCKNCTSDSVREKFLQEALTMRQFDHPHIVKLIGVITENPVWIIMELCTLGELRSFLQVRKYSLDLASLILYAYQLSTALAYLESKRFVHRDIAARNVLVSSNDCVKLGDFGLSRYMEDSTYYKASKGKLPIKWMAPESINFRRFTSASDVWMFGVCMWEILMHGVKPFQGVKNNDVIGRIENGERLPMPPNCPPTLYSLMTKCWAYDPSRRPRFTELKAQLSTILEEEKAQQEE

Row | IC50 [nM] | Structure (SMILES)
1 | 1 | CC(=O)c1ccc(Nc2ncc(C(F)(F)F)c(NCc3cccnc3N(C)S(C)(=O)=O)n2)cc1 [Compound 311, N-{3-[({2-[(4-acetylphenyl)amino]-5-(trifluoromethyl)pyrimidin-4-yl}amino)methyl]pyridin-2-yl}-N-methylmethane-sulfonamide]
2 | 1.26 | CC(=O)c1cccc(Nc2ncc(C(F)(F)F)c(NCc3cccnc3N(C)S(C)(=O)=O)n2)c1 [Compound 312, N-{3-[({2-[(3-acetylphenyl)amino]-5-(trifluoromethyl)pyrimidin-4-yl}amino)methyl]pyridin-2-yl}-N-methylmethane-sulfonamide]
3 | < 0.595 | CN(c1ncccc1CNc1nc(Nc2ccc(-c3nnn[nH]3)cc2)ncc1C(F)(F)F)S(C)(=O)=O [Compound 314, N-methyl-N-[3-({[2-{[4-(1H-tetrazol-5-yl)phenyl]amino}-5-(trifluoromethyl)pyrimidin-4-yl]amino}methyl)pyridin-2-yl]methanesulfonamide]
4 | 119 | COC(=O)c1ccc(Nc2ncc(C(F)(F)F)c(NCc3cccc(N(C(F)F)S(C)(=O)=O)c3)n2)cc1 [Compound 321, 4-{[4-({3-[(difluoromethyl)(methyl-sulfonyl)amino]benzyl}amino)-5-(trifluoromethyl)pyrimidin-2-yl]amino}benzoate]
5 | 1.5 | CN(c1ncccc1CNc1nc(Nc2ccc(C(C)(C)O)cc2)ncc1C(F)(F)F)S(C)(=O)=O [Compound 323, N-[3-({[2-{[4-(1-hydroxy-1-methylethyl)phenyl]amino}-5-(trifluoromethyl)pyrimidin-4-yl]amino}methyl)pyridin-2-yl]-N-methylmethane-sulfonamide]
6 | 2.66 | CN(c1cccnc1CNc1nc(Nc2ccc(C(C)(C)O)cc2)ncc1C(F)(F)F)S(C)(=O)=O [Compound 325, N-[2-({[2-{[4-(1-hydroxy-1-methylethyl)phenyl]amino}-5-(trifluoromethyl)pyrimidin-4-yl)amino}methyl)pyridin-3-yl]-N-methylmethane-sulfonamide]
7 | 1.62 | CN(c1nccnc1CNc1nc(Nc2ccc(C(C)(C)O)cc2)ncc1C(F)(F)F)S(C)(=O)=O [Compound 326, N-[3-({[2-{(4-(1-hydroxy-1-methylethyl)phenyl]amino}-5-(trifluoromethyl)pyrimidin-4-yl]amino}methyl)pyrazin-2-yl]-N-methylmethane-sulfonamide]
8 | 1.69 | CN(c1nccnc1CNc1nc(Nc2ccc(C(N)=O)c(F)c2)ncc1C(F)(F)F)S(C)(=O)=O [Compound 327, 2-fluoro-4-({4-[({3-[methyl(methylsulfonyl)amino]pyrazin-2-yl}methyl)amino]-5-(trifluoromethyl)pyrimidin-2-yl}amino)benzamide]
9 | 0.619 | CC(O)c1ccc(Nc2ncc(C(F)(F)F)c(NCc3cccc(N(C)S(C)(=O)=O)c3)n2)cc1 (stereo not drawn) [Compound 328, N-[3-({[2-{[4-(1-hydroxyethyl)phenyl]amino}-5-(trifluoromethyl)pyrimidin-4-yl]amino}methyl)phenyl]-N-methylmethanesulfonamide]
10 | 0.914 | CC(O)c1ccc(Nc2ncc(C(F)(F)F)c(NCc3ncccc3N(C)S(C)(=O)=O)n2)cc1 (stereo not drawn) [Compound 329, N-[2-({[2-{[4-(1-hydroxyethyl)phenyl}amino}-5-(trifluoromethyl)pyrimidin-4-yl]amino}methyl)pyridin-3-yl)-N-methylmethane-sulfonamide]
11 | 0.75 | CC(O)c1ccc(Nc2ncc(C(F)(F)F)c(NCc3nccnc3N(C)S(C)(=O)=O)n2)cc1 (stereo not drawn) [Compound 330, N-[3-({[2-{[4-(1-hydroxyethyl)phenyl]amino}-5-(trifluoromethyl)pyrimidin-4-yl]amino}methyl)pyrazin-2-yl]-N-methylmethane-sulfonamide]
12 | 1.77 | CN(c1cccnc1CNc1nc(Nc2ccc(C(N)=O)c(F)c2)ncc1C(F)(F)F)S(C)(=O)=O [Compound 331, 2-fluoro-4-({4-[({3-[methyl(methylsulfonyl)amino]pyridin-2-yl}methyl)amino]-5-(trifluoromethyl)pyrimidin-2-yl}amino)benzamide]
